According to PubChem BioAssay (NCI):
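How tested: cells in 96-well plates exposed to compound for 48 hours at five concentrations. GI50 is the concentration that inhibits growth by half. TGI marks complete inhibition of growth.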

Columns and labels:
Experiment in all cases: growth of human tumour cells (NCI), 48 h
[1] = tested on: SW-620 colon
[2] = tested on: OVCAR-3 ovarian
[3] = tested on: 786-0 renal
[4] = tested on: SK-OV-3 ovarian
[5] = tested on: U251 CNS
[6] = tested on: BT-549 breast
[7] = tested on: NCI-H23 lung
[8] = tested on: CAKI-1 renal
[9] = tested on: UO-31 renal
[10] = tested on: SNB-75 CNS
[11] = tested on: MALME-3M melanoma
[12] = tested on: RXF 393 renal
[13] = tested on: NCI-H460 lung
[14] = tested on: LOX IMVI melanoma
[15] = tested on: SF-539 CNS
[16] = tested on: MCF7 breast
[17] = tested on: SK-MEL-2 melanoma
[18] = tested on: PC-3 prostate
[19] = tested on: HOP-62 NSCLC
[20] = tested on: NCI-H226 lung
[21] = tested on: MDA-MB-231 breast
[22] = tested on: SK-MEL-5 melanoma
[23] = tested on: HL-60(TB) leukemia
[24] = tested on: SF-295 CNS
[25] = tested on: OVCAR-8 ovarian
[26] = tested on: TK-10 renal
[27] = tested on: SR leukemia
[28] = tested on: SNB-19 CNS
[29] = tested on: OVCAR-4 ovarian
[30] = tested on: MDA-MB-468 breast
[31] = tested on: HCT-15 colon
[32] = tested on: M14 melanoma
[33] = tested on: SN12C renal
[34] = tested on: CCRF-CEM leukemia
[35] = tested on: MDA-MB-435
[36] = tested on: T-47D breast
[37] = tested on: IGROV1 ovarian
[38] = tested on: K-562 leukemia
[39] = tested on: RPMI-8226 leukemia
[40] = tested on: HCC-2998 colon
[41] = tested on: UACC-62 melanoma
[42] = tested on: NCI/ADR-RES ovarian
[43] = tested on: NCI-H522 lung
[44] = tested on: SK-MEL-28 melanoma
[45] = tested on: UACC-257 melanoma
[46] = tested on: KM12 colon
[47] = tested on: EKVX NSCLC
[48] = tested on: ACHN renal
[49] = tested on: HS 578T breast
[50] = tested on: SF-268 CNS
[51] = tested on: A549 NSCLC
[52] = tested on: HCT-116 colon
[53] = tested on: DU-145 prostate
[54] = tested on: A498 renal
[55] = tested on: HT29 colon
[56] = tested on: MOLT-4 leukemia
[57] = tested on: HOP-92 NSCLC
[58] = tested on: COLO 205 colon
[59] = tested on: OVCAR-5 ovarian

## Cc1cc2nc3c4ccccc4n(CCCN(C)C)c3nc2cc1C
[1]
  GI50: 1.72 µM
  TGI: 5.45 µM
[2]
  GI50: 2.46 µM
  TGI: 6 µM
[3]
  GI50: 3 µM
  TGI: 11.8 µM
[4]
  GI50: 2.05 µM
  TGI: 5.93 µM
[5]
  GI50: 2 µM
  TGI: 6.42 µM
[6]
  GI50: 2.51 µM
  TGI: 9.68 µM
[7]
  GI50: 1.71 µM
  TGI: 4.1 µM
[8]
  GI50: 2.08 µM
  TGI: 7.36 µM
[9]
  GI50: 0.6 µM
  TGI: 3.27 µM
[10]
  GI50: 1.85 µM
  TGI: 10.2 µM
[11]
  GI50: 1.82 µM
  TGI: 3.91 µM
[12]
  GI50: 2.28 µM
  TGI: 7.09 µM
[13]
  GI50: 2.31 µM
  TGI: 6.76 µM
[14]
  GI50: 1.35 µM
  TGI: 2.87 µM
[15]
  GI50: 2.16 µM
  TGI: 5.51 µM
[16]
  GI50: 1.95 µM
  TGI: 4.88 µM
[17]
  GI50: 1.68 µM
  TGI: 3.21 µM
[18]
  GI50: 2.71 µM
  TGI: 17.3 µM
[19]
  GI50: 1.57 µM
  TGI: 5 µM
[20]
  GI50: 2.38 µM
  TGI: 9.14 µM
[21]
  GI50: 1.94 µM
  TGI: 4.79 µM
[22]
  GI50: 2.21 µM
  TGI: 5.12 µM
[23]
  GI50: 2.19 µM
  TGI: 5.43 µM
[24]
  GI50: 2.29 µM
  TGI: 8.79 µM
[25]
  GI50: 1.32 µM
  TGI: 4.08 µM
[26]
  GI50: 2.58 µM
  TGI: 8.64 µM
[27]
  GI50: 2.03 µM
  TGI: 6.94 µM
[28]
  GI50: 2.99 µM
  TGI: 11.5 µM
[29]
  GI50: 2.65 µM
  TGI: 8.11 µM
[30]
  GI50: 2.46 µM
  TGI: 7.54 µM
[31]
  GI50: 1.8 µM
  TGI: 3.56 µM
[32]
  GI50: 1.69 µM
  TGI: 3.5 µM
[33]
  GI50: 2.33 µM
  TGI: 10.1 µM
[34]
  GI50: 3.05 µM
  TGI: 11.7 µM
[35]
  GI50: 2.09 µM
  TGI: 4.52 µM
[36]
  GI50: 2.72 µM
  TGI: 9.11 µM
[37]
  GI50: 1.76 µM
  TGI: 4.11 µM
[38]
  GI50: 2.52 µM
  TGI: 10.2 µM
[39]
  GI50: 2.65 µM
  TGI: 13.1 µM
[40]
  GI50: 1.74 µM
  TGI: 3.83 µM
[41]
  GI50: 1.89 µM
  TGI: 4.97 µM
[42]
  GI50: 1.41 µM
  TGI: 3.57 µM
[43]
  GI50: 1.44 µM
  TGI: 3.45 µM
[44]
  GI50: 3.06 µM
  TGI: 9.72 µM
[45]
  GI50: 1.84 µM
  TGI: 4.41 µM
[46]
  GI50: 3.31 µM
  TGI: 11.3 µM
[47]
  GI50: 3.01 µM
  TGI: 10.1 µM
[48]
  GI50: 1.73 µM
  TGI: 4.91 µM
[49]
  GI50: 2.95 µM
  TGI: 14.8 µM
[50]
  GI50: 2.95 µM
  TGI: 10.1 µM
[51]
  GI50: 1.5 µM
  TGI: 4.04 µM
[52]
  GI50: 1.77 µM
  TGI: 9 µM
[53]
  GI50: 3.16 µM
  TGI: 9.57 µM
[54]
  GI50: 3.97 µM
  TGI: 13 µM
[55]
  GI50: 1.45 µM
  TGI: 4.53 µM
[56]
  GI50: 1.94 µM
  TGI: 6.41 µM
[57]
  GI50: 1.89 µM
  TGI: 9.4 µM
[58]
  GI50: 1.32 µM
  TGI: 2.85 µM
[59]
  GI50: 2.34 µM
  TGI: 6.87 µM
